Assay results published in PubChem BioAssay (NCI).
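Compound exposure: 48 hours, 5 concentrations, 96-well plates. The concentration for full growth arrest is given as TGI.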

What was measured:
Assay in all cases: NCI anticancer screen, dose series, 48 h
786-0 renal = tested on: 786-0 renal
A498 renal = tested on: A498 renal
A549 NSCLC = tested on: A549 NSCLC
ACHN renal = tested on: ACHN renal
CAKI-1 renal = tested on: CAKI-1 renal
CCRF-CEM leukemia = tested on: CCRF-CEM leukemia
COLO 205 colon = tested on: COLO 205 colon
DU-145 prostate = tested on: DU-145 prostate
EKVX NSCLC = tested on: EKVX NSCLC
HCC-2998 colon = tested on: HCC-2998 colon
HCT-116 colon = tested on: HCT-116 colon
HCT-15 colon = tested on: HCT-15 colon
HL-60(TB) leukemia = tested on: HL-60(TB) leukemia
HOP-92 NSCLC = tested on: HOP-92 NSCLC
IGROV1 ovarian = tested on: IGROV1 ovarian
K-562 leukemia = tested on: K-562 leukemia
KM12 colon = tested on: KM12 colon
LOX IMVI melanoma = tested on: LOX IMVI melanoma
M14 melanoma = tested on: M14 melanoma
MALME-3M melanoma = tested on: MALME-3M melanoma
MCF7 breast = tested on: MCF7 breast
MDA-MB-231 breast = tested on: MDA-MB-231 breast
MDA-MB-435 = tested on: MDA-MB-435
MDA-N = tested on: MDA-N
MOLT-4 leukemia = tested on: MOLT-4 leukemia
NCI-H226 lung = tested on: NCI-H226 lung
NCI-H23 lung = tested on: NCI-H23 lung
NCI-H460 lung = tested on: NCI-H460 lung
NCI-H522 lung = tested on: NCI-H522 lung
NCI/ADR-RES ovarian = tested on: NCI/ADR-RES ovarian
OVCAR-3 ovarian = tested on: OVCAR-3 ovarian
OVCAR-4 ovarian = tested on: OVCAR-4 ovarian
OVCAR-5 ovarian = tested on: OVCAR-5 ovarian
OVCAR-8 ovarian = tested on: OVCAR-8 ovarian
PC-3 prostate = tested on: PC-3 prostate
RPMI-8226 leukemia = tested on: RPMI-8226 leukemia
RXF 393 renal = tested on: RXF 393 renal
SF-295 CNS = tested on: SF-295 CNS
SF-539 CNS = tested on: SF-539 CNS
SK-MEL-2 melanoma = tested on: SK-MEL-2 melanoma
SK-MEL-5 melanoma = tested on: SK-MEL-5 melanoma
SK-OV-3 ovarian = tested on: SK-OV-3 ovarian
SN12C renal = tested on: SN12C renal
SNB-75 CNS = tested on: SNB-75 CNS
SR leukemia = tested on: SR leukemia
SW-620 colon = tested on: SW-620 colon
TK-10 renal = tested on: TK-10 renal
U251 CNS = tested on: U251 CNS
UACC-257 melanoma = tested on: UACC-257 melanoma
UACC-62 melanoma = tested on: UACC-62 melanoma
UO-31 renal = tested on: UO-31 renal
BT-549 breast = tested on: BT-549 breast
HOP-62 NSCLC = tested on: HOP-62 NSCLC
HT29 colon = tested on: HT29 colon
SF-268 CNS = tested on: SF-268 CNS
SK-MEL-28 melanoma = tested on: SK-MEL-28 melanoma
SNB-19 CNS = tested on: SNB-19 CNS

Measured: TGI

O=CC1=C(C(=O)OC(c2ccccc2)c2ccccc2)N2C(=O)[C@@H](NC(=O)Cc3cccs3)[C@H]2SC1
not listed: BT-549 breast | HOP-62 NSCLC | HT29 colon | SF-268 CNS | SK-MEL-28 melanoma | SNB-19 CNS
> 100 µM: all other assays above

CC(=O)NC(CC(C)C)C(=O)NC(CC(C)C)C(=O)NC(C=O)CCCN=C(N)N (stereo unspecified)
not listed: HL-60(TB) leukemia | RXF 393 renal
> 100 µM: all other assays above
